1 compound from paper PMC4527730, “A Pan-GTPase Inhibitor as a Molecular Probe” (PLoS ONE, 2015) can be followed below.

In general, EC50 refers to the concentration at which the effect is half-maximal.

One series concerns the target H-Ras (Homo sapiens, UniProt P01112). In words: Multiplex bead-based flow cytometry dose-response of fluorescent guanine nucleotide binding. Background: A flow cytometer gives signals particle by particle.
For series [1], the system named is phospho-Erk 1/2 in H358 cells. In words: Western blotting of Erk1/2 phosphorylation downstream of Ras signaling. Format: cell-based. The settings on record: 10 μM, 1 h; complete medium or FBS stimulated after starvation. How it is done: H358 lung cancer cells were seeded at 10^6 cells/well in 6–well plates. […] Then cells were stimulated with 10% FBS for 5 min and lysed in 150 μl RIPA buffer. Cell lysates were processed for SDS-PAGE, transferred to PVDF membranes and probed with a monoclonal antibody directed against phospho-Erk 1/2 (from Cell Signaling) and a monoclonal antibody directed against Erk 1/2 (from Cell Signaling) followed by an HRP labeled ECL anti-mouse IgG (from GE Healthcare).

The next series in a line: Stability in PBS. Particulars: 23 °C, after 48 hours. It is filed as physicochemical. The method, then: page 7: conclusion, the available data support the idea that compound CID1067700 has non-classical competitive character. […] Solubility was measured in phosphate buffered saline (PBS) at room temperature (23 °C). PBS by definition is 137 mM NaCl, 2.7 mM KCl, 10 mM sodium phosphate dibasic, 2 mM potassium phosphate [monobasic and a pH of 7.4. Detection was based on UV absorbance. […] Solubility was also assessed in the each of the four media used in the individual assays. […] Table 1S. […] Stability, depicted as closed circles in the graph, was assessed at room temperature (23 °C) in PBS (no antioxidants or other protectants and DMSO concentration below 0.1%). Stability data is depicted in Fig. S8 showing the loss of compound with time over a 48 h period with a minimum of 6 time points and providing the percent remaining compound at end of the 48 h period. Under these conditions, 77% of 1 remains after 48 hours. The degradation has not been further characterized.

In the next series the target is H-Ras G12V (Homo sapiens, UniProt P01112, G12V). Description: Multiplex bead-based flow cytometry dose-response of fluorescent guanine nucleotide binding. Particulars: EC50 H-Ras G12V.
Chain of H-Ras G12V (P01112 whole entry G12V): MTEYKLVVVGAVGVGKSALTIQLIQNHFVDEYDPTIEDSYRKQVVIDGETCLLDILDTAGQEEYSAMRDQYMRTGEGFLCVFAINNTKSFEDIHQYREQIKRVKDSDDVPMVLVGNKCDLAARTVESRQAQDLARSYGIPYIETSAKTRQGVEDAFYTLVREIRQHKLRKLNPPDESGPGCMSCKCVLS
Series [2] deals with GTPases (H-Ras, H-Ras G12V, Cdc42, Cdc42 Q61L, Rac1, Rac1 Q61L, RhoA, Rab7). In words: Multiplex dose-response assay, statements across the GTPase panel.
Experimental: Briefly, individual GST-GTPases were separately attached to glutathione microsphere beads that were labeled with varying intensity of red fluorescent dye, and subsequently combined. The buffer contains 30 mM HEPES (pH 7.2), 150 mM KCl, 20 mM NaCl, 0.1% BSA, 1 mM DTT, 1 mM EDTA and 0.1% NP-40. For Rho A and Rac1, 1 mM EDTA was replaced with 1 mM MgCl2 to stabilize the protein. […] To study whether the compounds are slow binders, BODIPY^- FL GTP was added either immediately or 2 h after compound addition. […] The curves were fitted to the sigmoidal dose-response equation using GraphPad Prism. Percent response was calculated as the ratio of (sample MCF–negative control MCF) / (positive control MCF–negative control MCF).
The next series addresses Cdc42 (Homo sapiens, UniProt P60953). Description: GTPase and effector interaction assay (PAK-PBD beads), HeLa cell lysates. Particulars: HeLa cells, 10 μM, 2 h, EGF 10 ng/mL 2 min.
The next series relates to U937 FPRΔST cells. Description: Cytotoxicity (CellTiter-Glo). Format: cell-based. The settings on record: up to 100 µM; 24 h and 1 h. The method, then: (§1) S3 Fig. Cytotoxicity of 1 and analogues. […]
(§2) µM over the experimental time frame. Compounds tested in the U937ΔST cells for 24 h (A) and (B), and for 1 h (C). Compounds tested in SCC-12F cells for 24 h (D) and (E), and for 3 h (F-I). Data are reported as ratios of luminescence to that of the DMSO treated control.
(§3) (1 picture or pasted object on this page, not shown here)
(§4) FITC-LDV dissociation assay
(§5) The dissociation kinetics of FITC-LDV was measured by flow cytometry following the addition of 100-fold excess of non-fluorescent LDV. (The kinetic constants obtained are the same within experimental error whether adding 100-fold or 200-fold excess non-fluorescent LDV). The fluorescence decrease was recorded (see B in S2 Fig.). For the resting state, when a fluorescence plateau was reached after the addition of LDV-FITC, LDV was added to the cell suspension. For the high affinity state, when the fluorescence reached equilibrium after the sequential addition of LDV-FITC and N-formyl peptide, LDV was added. To study the effect of a compound, LDV was added at the time point when the fluorescence approached a […]. The fluorescence decrease curve was fitted to Equation 2 to obtain the dissociation rate constant koff. […] Therefore the binding affinity can also be estimated by comparing the measured koff. […]

The subject of a further series is SCC-12F cells. Description: Cytotoxicity (CellTiter-Glo). Format: cell-based. The settings on record: up to 100 µM; 24 h and 3 h. The method, then: as §1, §2, §3, §4, §5
On the technique in general: Cellular ATP, detected with luciferase, serves as a proxy for viable cell number.

Chain of H-Ras (P01112 whole entry): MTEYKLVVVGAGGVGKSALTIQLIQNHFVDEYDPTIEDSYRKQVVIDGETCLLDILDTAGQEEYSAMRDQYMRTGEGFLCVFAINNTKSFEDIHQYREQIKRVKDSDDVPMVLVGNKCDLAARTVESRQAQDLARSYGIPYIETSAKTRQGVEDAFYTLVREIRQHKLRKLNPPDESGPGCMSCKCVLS
Chain of Cdc42 (P60953 whole entry): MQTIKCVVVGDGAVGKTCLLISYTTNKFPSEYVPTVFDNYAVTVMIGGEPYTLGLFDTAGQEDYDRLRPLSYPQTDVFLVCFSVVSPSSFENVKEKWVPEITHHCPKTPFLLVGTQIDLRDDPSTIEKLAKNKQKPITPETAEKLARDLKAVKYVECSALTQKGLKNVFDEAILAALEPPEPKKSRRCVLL

With `CC1(C)Cc2c(sc(NC(=S)NC(=O)c3ccccc3)c2C(=O)O)CO1` [Compound 1], the EC50 came out at 160 ± 160 nM on H-Ras (EC50 H-Ras, BODIPY-FL GTP binding, 2 h at 4°C); 240 nM at H-Ras (EC50 H-Ras, concentration dependence on BODIPY-FL GDP); 100 ± 3.5 nM at H-Ras (EC50 Ras, with 2 h incubation before BODIPY-FL GTP); 130 ± 2.6 nM on H-Ras (EC50 Ras, without incubation before BODIPY-FL GTP); 52 ± 44 nM on H-Ras G12V (BODIPY-FL GTP binding, 2 h at 4°C); 260 nM on H-Ras G12V (concentration dependence on BODIPY-FL GDP). For the same compound, the “phosphorylation level of Erk 1/2” value in series [1] was “decreased”. Moreover, the compound remaining in “Stability in PBS” was found to be 77%. Moreover, the “inhibitory activity on BODIPY-FL GTP binding across all GTPases tested (in words)” value in series [2] (SAR versus compound 1) is “inhibited BODIPY^- FL GTP binding to all the GTPases tested in a dose-dependent manner”. Also, the slow binding behaviour result in series [2] (two-hour incubation or no incubation before BODIPY-FL GTP) is on record as “not a slow binder”. Also, the “level of active Cdc42 after EGF stimulation” value at Cdc42 is given as “below the basal levels”. Besides, the toxicity entry in the series on U937 FPRΔST cells and with SCC-12F cells was “did not show toxicity” in each case.
